Source: patent US6599913B1, “Treating allergic and inflammatory conditions” (Schering Corporation, priority 2001, dated 2003)

What was measured:
[1] = Double-blinded randomized clinical trials in seasonal allergic rhinitis
Procedure: Efficacy endpoints in all the studies were Total Symptom Score, Total Nasal Symptom Score, Total Non-nasal Symptom Score, and Health Quality of Life (HQOL) analysis in efficacy trials. […] This parameter measures the total symptom relief by the patient after 24 hours before taking the next day dose.

[2] = Treatment of chronic idiopathic urticaria; settings: oral administration
[3] = target: P-gp (UniProt P21448); settings: ATP hydrolysis
Procedure: The invention will be further described by reference to the following study.
A direct functional assay was performed with […] as described previously. Ibid. The consumption of ATP was determined by the liberated inorganic orthophosphate, which forms a color complex with molybdate.
If a compound is a substrate of P-gp the hydrolysis of ATP is required as the driving force. As ATP is consumed at a purported rate of about one or two per transport event, the hydrolysis of ATP represents transport rate or activity assay of function. […] Any change in the rate of ATP hydrolysis represents the sum of the basal activity and the contribution of the exogenous substrate to ATP hydrolysis.

[4] = target: T1, rat OATP1 (Rattus norvegicus, UniProt P46720); settings: cited from earlier work
T1 sequence (P46720 1-670): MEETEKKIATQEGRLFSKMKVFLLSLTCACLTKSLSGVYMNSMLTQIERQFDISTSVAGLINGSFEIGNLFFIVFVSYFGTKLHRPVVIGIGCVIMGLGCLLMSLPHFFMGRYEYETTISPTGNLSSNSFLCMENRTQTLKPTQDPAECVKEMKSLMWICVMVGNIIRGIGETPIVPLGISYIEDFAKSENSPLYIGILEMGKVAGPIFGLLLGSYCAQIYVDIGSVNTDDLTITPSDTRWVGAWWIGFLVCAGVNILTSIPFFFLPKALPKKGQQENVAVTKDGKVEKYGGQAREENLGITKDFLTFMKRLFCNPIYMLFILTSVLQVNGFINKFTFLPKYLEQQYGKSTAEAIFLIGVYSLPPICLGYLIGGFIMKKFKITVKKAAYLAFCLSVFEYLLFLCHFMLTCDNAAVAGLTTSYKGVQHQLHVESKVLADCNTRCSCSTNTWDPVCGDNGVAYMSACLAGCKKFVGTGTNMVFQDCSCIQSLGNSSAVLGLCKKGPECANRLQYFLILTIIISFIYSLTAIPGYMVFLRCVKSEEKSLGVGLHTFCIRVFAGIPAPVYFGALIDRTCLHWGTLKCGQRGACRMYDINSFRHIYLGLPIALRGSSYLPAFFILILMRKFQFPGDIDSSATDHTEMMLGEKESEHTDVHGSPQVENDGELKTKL

[5] = target: T2, human OATP1 (Homo sapiens, UniProt P46721); settings: at 10 μM; cited from earlier work
T2 sequence (P46721 1-670): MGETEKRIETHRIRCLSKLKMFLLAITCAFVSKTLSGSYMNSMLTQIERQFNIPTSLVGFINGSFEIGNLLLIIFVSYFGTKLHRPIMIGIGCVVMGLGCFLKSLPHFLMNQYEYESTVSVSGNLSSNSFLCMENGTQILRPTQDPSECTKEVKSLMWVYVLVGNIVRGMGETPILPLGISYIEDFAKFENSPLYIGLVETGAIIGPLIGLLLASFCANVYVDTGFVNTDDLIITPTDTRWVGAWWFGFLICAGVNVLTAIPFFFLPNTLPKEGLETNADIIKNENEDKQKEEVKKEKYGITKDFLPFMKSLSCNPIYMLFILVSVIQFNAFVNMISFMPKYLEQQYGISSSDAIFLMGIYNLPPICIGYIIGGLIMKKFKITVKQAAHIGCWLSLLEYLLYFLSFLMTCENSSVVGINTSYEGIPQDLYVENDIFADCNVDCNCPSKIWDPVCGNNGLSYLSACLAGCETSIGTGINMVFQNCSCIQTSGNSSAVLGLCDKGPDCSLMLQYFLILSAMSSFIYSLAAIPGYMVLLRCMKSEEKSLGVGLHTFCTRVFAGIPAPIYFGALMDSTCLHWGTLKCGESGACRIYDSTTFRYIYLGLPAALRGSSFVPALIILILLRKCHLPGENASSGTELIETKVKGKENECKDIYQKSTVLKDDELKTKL

[6] = target: T3, human OATP (Homo sapiens, UniProt P46721); settings: cited from earlier work
T3 sequence (P46721 1-670): T2 sequence (P46721 1-670)

Compound: Clc1ccc2c(c1)CCc1cccnc1C2=C1CCNCC1 [desloratadine]
- Reduction of nasal symptoms versus placebo ([1]; 5 mg): significantly (p<0.01) more effective than placebo
- Total symptom scores ([1]; 5 mg once daily): significantly reduced
- AM NOW total symptom score ([1]; full 24 hour dosing interval, 5 mg to 20 mg): Statistically significant (p<0.05) reductions
- Severity of pruritis, number of hives, size of largest hive, total symptom score [2]: significantly reduced

Compound: CCOC(=O)N1CCC(=C2c3ccc(Cl)cc3CCc3cccnc32)CC1 [loratadine]
- Vmax above basal activity ([3]; FIG. 3): ≈ 200%
- Vmax as % of basal (control) activity ([3]; without H33342): about 200%

Compound: CC[C@H](C)C(=O)O[C@H]1C[C@@H](C)C=C2C=C[C@H](C)[C@H](CC[C@@H]3C[C@@H](O)CC(=O)O3)[C@H]21 [lovastatin]
- Inhibition of rat OATP1 ([4]; at 50 μM): effectively inhibit
- Inhibition of human OATP1 [5]: effectively inhibits
- Inhibition of fexofenadine uptake [6]: significant inhibition

Compound: CC(C)c1nc(CN(C)C(=O)N[C@H](C(=O)N[C@@H](Cc2ccccc2)C[C@H](O)[C@H](Cc2ccccc2)NC(=O)OCc2cncs2)C(C)C)cs1 [ritonavir]
- Inhibition of human OATP1 [5]: effectively inhibit
- Inhibition of fexofenadine uptake [6]: significant inhibition

Compound: CC(C)(C)NC(=O)[C@@H]1C[C@@H]2CCCC[C@@H]2CN1C[C@@H](O)[C@H](Cc1ccccc1)NC(=O)[C@H](CC(N)=O)NC(=O)c1ccc2ccccc2n1 [saquinavir]
- Inhibition of human OATP1 [5]: effectively inhibit
- Inhibition of fexofenadine uptake [6]: significant inhibition

Compound: APD-ajmalinium
- Transport by rat OATP [4]: transports
